# From patent US20080045507A1, “SUBSTITUTED BENZAMIDE MODULATORS OF THE HISTAMINE H3 RECEPTOR” (priority 2006, published 2008)
# How the values were obtained:
# human H3 receptor [1] = biological target: T1, human H3 receptor (Homo sapiens, UniProt Q9Y5N1); test: H3 receptor binding, cloned human H3 receptor stably expressed in SK-N-MC cells; settings: average of results
# T1 construct: expressed in transfected cells
# Procedure: (§1) Binding of compounds to the cloned human and rat H3 receptors, stably expressed in SK-N-MC cells, was performed as described by Barbier, A. J. et al. (Br. J. Pharmacol. 2004, 143(5), 649-661). Data for compounds tested in these assays are presented in Table 1 (human) and Table 2 (rat), as an average of the results obtained.
# rat H3 receptor [2] = biological target: T2, rat H3 receptor (Rattus norvegicus, UniProt Q9QYN8); test: H3 receptor binding, cloned rat H3 receptor stably expressed in SK-N-MC cells; settings: average of results
# T2 construct: expressed in transfected cells
# Procedure: as §1
# human H3 receptor [3] = biological target: T1, human H3 receptor; test: Cyclic AMP accumulation, SK-N-MC subline with reporter construct and human H3 receptor; type: cell-based; settings: cAMP accumulation, SK-N-MC reporter cells expressing human H3; average of results; read-out: Human pA2 (converted)
# Text: (§2) Sublines of SK-N-MC cells were created that expressed a reporter construct and either the human or rat H3 receptor. The pA2 values were obtained as described by Barbier et al. (2004). Data for compounds tested in these assays are presented in Table 3, as an average of the results obtained (NT=not tested).
# rat H3 receptor [4] = biological target: T2, rat H3 receptor; test: Cyclic AMP accumulation, SK-N-MC subline with reporter construct and rat H3 receptor; type: cell-based; settings: cAMP accumulation, SK-N-MC reporter cells expressing rat H3; average of results; read-out: Rat pA2 (converted)
# Text: as §2
# T2 sequence (Q9QYN8 whole entry): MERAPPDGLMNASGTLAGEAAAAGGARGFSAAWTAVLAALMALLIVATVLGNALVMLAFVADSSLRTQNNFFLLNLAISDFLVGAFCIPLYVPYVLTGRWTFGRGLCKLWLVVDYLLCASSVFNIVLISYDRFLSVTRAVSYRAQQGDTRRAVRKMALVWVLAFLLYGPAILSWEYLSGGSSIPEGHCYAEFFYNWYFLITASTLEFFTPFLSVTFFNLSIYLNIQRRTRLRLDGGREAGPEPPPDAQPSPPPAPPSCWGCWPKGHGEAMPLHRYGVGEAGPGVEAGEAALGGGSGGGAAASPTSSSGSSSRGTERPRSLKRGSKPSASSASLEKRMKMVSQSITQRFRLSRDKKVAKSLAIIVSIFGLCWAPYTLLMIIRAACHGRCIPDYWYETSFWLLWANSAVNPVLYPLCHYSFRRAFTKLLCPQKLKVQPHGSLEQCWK
# T1 sequence (Q9Y5N1 whole entry): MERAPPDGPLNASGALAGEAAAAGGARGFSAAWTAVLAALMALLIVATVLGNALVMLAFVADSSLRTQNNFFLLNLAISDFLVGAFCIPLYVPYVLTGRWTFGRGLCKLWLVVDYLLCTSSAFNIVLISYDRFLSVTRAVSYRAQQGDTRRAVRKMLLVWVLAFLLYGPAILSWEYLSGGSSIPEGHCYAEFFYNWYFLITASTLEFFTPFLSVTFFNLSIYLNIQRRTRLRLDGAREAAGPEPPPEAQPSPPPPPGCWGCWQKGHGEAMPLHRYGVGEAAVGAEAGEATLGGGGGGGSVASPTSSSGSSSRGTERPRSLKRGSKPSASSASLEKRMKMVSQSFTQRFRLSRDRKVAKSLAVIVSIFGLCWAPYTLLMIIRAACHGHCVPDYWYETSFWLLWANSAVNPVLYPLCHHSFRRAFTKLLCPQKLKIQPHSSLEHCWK
Structure (SMILES),Ki (human H3 receptor [1]),Ki (rat H3 receptor [2]),Kb (human H3 receptor [3]),Kb (rat H3 receptor [4])
"O=C(c1ccc(C(O)C2CCCCC2)cc1)N1CCCN(C2CC2)CC1 (stereo not drawn) [Example 27, [4-(Cyclohexyl-hydroxy-methyl)-phenyl]-(4-cyclopropyl-[1,4]diazepan-1-yl)-methanone]",1 nM,37 nM,0.955 nM,6.92 nM
"O=C(c1ccc(C(O)c2ccccc2)cc1)N1CCCN(C2CC2)CC1 (stereo not drawn) [Example 30, (4-Cyclopropyl-[1,4]diazepan-1-yl)-[4-(hydroxy-phenyl-methyl)-phenyl]-methanone]",2 nM,28 nM,0.417 nM,1.51 nM
"CC(C)(C)c1ccc(C(=O)N2CCN(C3CCC3)CC2)cc1 [Example 33, (4-tert-Butyl-phenyl)-(4-cyclobutyl-piperazin-1-yl)-methanone]",5 nM,152 nM,3.63 nM,13.5 nM
